Patent publication US8946167B2, “Pharmaceutical compositions containing plasma protein” (priority 1997, dated 2015)

Columns and labels:
histamine release = assay: hypersensitivity test: plasma histamine level in rats; format: in vivo, CRL (WI) BR male rats; conditions: around 7.0 mg/kG for paclitaxel i.v., blood after 2, 5 and 10 minutes
human gamma globulin = assay: binding of active substance to human gamma globulin (ultrafiltration, HPLC); conditions: Example II.4; 2.25% human gamma globulin + 0.1 mg/ml paclitaxel in absolute ethanol 9:1; lyophilised, redissolved; UF

- histamine release induction (plasma histamine level) (histamine release): do not show any such effect
- binding of paclitaxel to human gamma globulin (human gamma globulin): 98%
SMILES: CC(=O)O[C@H]1C(=O)[C@@]2(C)[C@H]([C@H](OC(=O)c3ccccc3)[C@]3(O)C[C@H](OC(=O)[C@H](O)[C@@H](NC(=O)c4ccccc4)c4ccccc4)C(C)=C1C3(C)C)[C@]1(OC(C)=O)CO[C@@H]1C[C@@H]2O [paclitaxel]
